Reference: patent US9572895B2, “Multiplexed supramolecular assemblies for non-viral delivery of genetic material” (The Board of Trustees of the University of Illinois, priority 2010, dated 2017)

Test system: plasmid DNA
Assay: Gel retardation assay on plasmid DNA
Assay type: binding
Details: various agent:DNA mass ratios, 1% agarose gel
Description: A solution of DNA (1 μg/10 μL) was prepared in doubled distilled water. Appropriate amounts of spermine, DOS or oligoarginine dissolved in double distilled water were added to the DNA solution (10 μL) to achieve the desired spermine:DNA, DOS:DNA or Arg9:DNA weight ratio (FIGS. 6 and 7). Complexes were incubated at room temperature for 15 min, after which loading dye was added and the solution (10 μL) was run on a 1% agarose gel (70 V, 70 min). DNA was stained with ethidium bromide and visualized on a Gel Doc imaging system (Biorad, Herclues, Calif.).

## H-Arg-Arg-Arg-Arg-Arg-Arg-Arg-Arg-Arg-OH trifluoroacetate salt [Arg9]
  electrostatic interaction with plasmid DNA (gel retardation): confirming the electrostatic interaction
